Reference: patent US6573269B1, “Pyrimidine-2,4,6-trione light screening compositions” (Roche Vitamins Inc., priority 1999, dated 2003)

Experiments:
Assay type in all cases: physicochemical
[1] = Photostability: irradiation in high dilution with a Hg-lamp (150 W from Hereus); conditions: irradiated in high dilution with a Hg-lamp (150 W)
Protocol: A 100 ml three necked reaction flask equipped with a thermometer, a reflux condenser, and a magnetic stirrer under nitrogen atmosphere was charged with 1.1 g (5 mmol) of 4-(2-ethyl-hexyloxy)-phenylamine (Example 1b), 1.06 g (5 mmol) of 1,3-diisopropyl-pyrimidine-2,4,6-trione (Example 1c) and 11.1 g (75 mmol) of triethyl orthoformate in 10 ml of tetrahydrofuran. This mixture was refluxed for 18 hours followed by washing twice with water, dried with Na2SO4, and concentrated on a rotary evaporator. The raw product was recrystallized in ethanol to yield 0.84 g of yellowish crystals. M.p. 74-76° C., UV 355 nm (32,122).

[2] = Measurement of solubility in cosmetic solvents Cétiol LC and Crodamol DA; conditions: oversaturated solution, overnight at 25° C., filtered, UV measurement in CH2Cl2
Protocol: e) Measurement of solubility in Cétiol LC (cocoyl caprylate caprate) and Crodamol DA (diisopropyl adipate).
After standing overnight at 25° C., the solution was filtered through a microfilter (Millipore, pore size 0.5 , μm), followed by UV measurement in CH2Cl2. The extinctions were compared with the extinctions of the pure compound.

[3] = UV absorption (UV-A filter property); conditions: for UV extinction (ε) at absorption maximum: value in brackets after the UV maximum
Text: The compounds of formula I have adsorption maxima in the range of 320 nm to 400 nm, the so called UV-A radiation.

| SMILES | photostability [1] | solubility in Crodamol DA (diisopropyl adipate) [2] | solubility in Cétiol LC (cocoyl caprylate caprate) [2] | UV absorption maximum [3] [nm] | UV extinction (ε) at absorption maximum [3] |
| --- | --- | --- | --- | --- | --- |
| CCCCCCCC(=O)Oc1ccc(NC=C2C(=O)N(C(C)C)C(=O)N(C(C)C)C2=O)cc1 [Example 8, 5-{(4-Capryloxy-phenylamine)-methylene}-1,3-diisopropyl-pyrimidine-2,4,6-trione] | photostable | 18.5% | 6.6% | 346 | 33,768 |
| CC(C)N1C(=O)C(=CNc2ccc(O)cc2)C(=O)N(C(C)C)C1=O [Example 6, 5-{(4-Hydroxy-phenylamine)-methylene}-1,3-diisopropyl-pyrimidine-2,4,6-trione] | photostable | 3.6% |  | 351 | 27,911 |
| CC(C)N1C(=O)C(=CNc2ccc(O)cc2O)C(=O)N(C(C)C)C1=O [Example 7, 5-{(2,4-Dihydroxy-phenylamine)-methylene}-1,3-diisopropyl-pyrimidine-2,4,6-trione] | photostable | 4.1% |  | 363 | 23,564 |
| CCCCCCCC(=O)Oc1ccc(NC=C2C(=O)N(C(C)C)C(=O)N(C(C)C)C2=O)c(OC(=O)CCCCCCC)c1 [Example 9 diester] |  |  | easily mixable with Cétiiol LC in any proportion | 351 | 31,349 |
| CCCCC(CC)COc1ccc(NC=C2C(=O)N(C(C)C)C(=O)N(C(C)C)C2=O)cc1 (stereo not shown) [Example 1, 5-{[4-(2-Ethyl-hexyloxy)-phenylamine]-methylene}-1,3-diisopropyl-pyrimidine-2,4,6-trione] | photostable | 26.9% | 15.5% | 355 | 32,122 |
| CCCCCCCC(=O)Oc1ccc(NC=C2C(=O)N(C(C)C)C(=O)N(C(C)C)C2=O)c(O)c1 [5-{[(2-hydroxy-4-capryloxy)-phenylamine])-methylene}-1,3-diisopropyl-pyrimidine-2,4,6-trione] |  |  |  | 354 | 25,813 |
| C#CCOc1ccc(NC=C2C(=O)N(C(C)C)C(=O)N(C(C)C)C2=O)cc1 [Example 2, 5-{(4-Propargyloxy-phenylamine)-methylene}-1,3-diisopropyl-pyrimidine-2,4,6-trione] | photostable |  |  | 352 | 31,596 |
| C=C(COc1ccc(NC=C2C(=O)N(C(C)C)C(=O)N(C(C)C)C2=O)cc1)[Si](C)(O[Si](C)(C)C)O[Si](C)(C)C [Example 3, 5-{[4-(2-(1,3,3,3-tetramethyl-1-[(trimethylsilyl)-oxy]-disiloxanyl)-prop-2-enyloxy)-phenylamine]-methylene}-1,3-diisopropyl-pyrimidine-2,4,6-trione] | excellent | unlimited | unlimited | 354 | 31,520 |
